Reference: patent US10100041B2, “Pyrazolyl substituted tetrahydropyranylsulfones” (GRÜNENTHAL GMBH, priority 2015, dated 2018)

Target: T1, Human CaV2.2 channels (Homo sapiens, UniProt Q00975)
T1 construct: expressed in transfected cells
Test: Fluorescence assay for CaV2.2 channels using potassium depolarization to induce channel opening (FLIPR, Fluo 4)
Format: cell-based
Settings: 30 mM KCl (alternative assay buffer, inactivated channel state), HEK293 cells; for inhibition at 3 µM: HEK293, 3 μM test compound, read-out: Activity Category: %-Inhib (CaV2.2) @3 μM @30 mM KCl
Excerpt: In the process, the Ca^2+ influx is quantified in the FLIPR assay with the aid of a Ca^2+-sensitive dye (type Fluo-4, Molecular Probes Europe BV, Leiden, the Netherlands) in a fluorescent imaging plate reader (FLIPR 3, Molecular Devices, Sunnyvale, USA), as described hereinafter.
2.1 Fluorescence Assay for CaV2.2 Channels Using Potassium Depolarization to Induce Channel Opening
Human CaV2.2 channels were stably expressed in HEK293 cells together with alpha2-delta and beta subunits of voltage gated calcium channels. In addition, an inwardly rectifying potassium channel (Kir2.3) was stably expressed in these cells to augment control of the cell membrane potential by the concentration of extracellular potassium ions. Raise of the extracellular potassium concentration leads to depolarization of the membrane potential and thus regulates the voltage dependent state of CaV2.2 channels. For preparation, cells were seeded in black poly-D-lysine coated 96-well plates (Becton Dickinson, Biocoat 4640) in 100 μL medium [500 mL DMEM/F-12 plus Glutamax (Invitrogen 31331-093) plus 5.5 mL MEM NEAA 100× (Invitrogen 11140-035) plus 50 mL FBS decomplemented (Invitrogen 10270-106) plus 200 μg/mL Geneticin (Invitrogen 10131-027) plus 50 μg/mL Hygromycin B (Invitrogen 10687-010) plus 2 μg/mL Blasticidin (anti-b15b Invivo-Gen) plus 0.2 μg/mL Puromycin (A 11138-03)] at a cell density of 30.000 cells per well. Plates were incubated at 37° C. (5% CO2) for 20 to 23 h. On the day of experiment medium was discarded and cells were loaded with Fluo 4 by addition of 100 μL of basic assay buffer (10 mM HEPES, 1 mM KCl, 149 mM NaCl, 0.8 mM CaCl2, 1.7 mM MgCl2, 10 mM Glucose, 0.1% BSA. pH 7.4) containing 2 μM Fluo 4 (Molecular Probes; F-14201), 0.01% pluronic acid (Molecular Probes; P-6866) and 2.5 mM probenecid (Molecular Probes; P36400). Cells were incubated in the dark at 25° C. for 60 min. Then dye containing buffer was discarded and […] basic (1 mM KCl) or alternative (30 mM KCl) assay buffer was added. The alternative assay buffer contained altered concentrations of KCl (30 mM) and NaCl (120 mM) and was used in order to promote the inactivated channel state. After that 25 μL of basic or alternative assay buffer with or without test compound were added and cells were incubated again in the dark at 25° C. for 15 min. Fluorescence intensity was measured on a FLIPR 3 instrument (Molecular Devices Corp., Sunnyvale, Calif.) with excitation at 480 nm and emission at 535 nm. After continuously reading fluorescence for 30 sec, 50 μL of basic assay buffer containing 210 mM KCl (NaCl omitted) were added for depolarization. Peak fluorescent signal intensity was determined and the amplitude of the peak signal, normalized to base line, was used to measure channel inhibition by test compounds.

T1 sequence (Q00975 whole entry): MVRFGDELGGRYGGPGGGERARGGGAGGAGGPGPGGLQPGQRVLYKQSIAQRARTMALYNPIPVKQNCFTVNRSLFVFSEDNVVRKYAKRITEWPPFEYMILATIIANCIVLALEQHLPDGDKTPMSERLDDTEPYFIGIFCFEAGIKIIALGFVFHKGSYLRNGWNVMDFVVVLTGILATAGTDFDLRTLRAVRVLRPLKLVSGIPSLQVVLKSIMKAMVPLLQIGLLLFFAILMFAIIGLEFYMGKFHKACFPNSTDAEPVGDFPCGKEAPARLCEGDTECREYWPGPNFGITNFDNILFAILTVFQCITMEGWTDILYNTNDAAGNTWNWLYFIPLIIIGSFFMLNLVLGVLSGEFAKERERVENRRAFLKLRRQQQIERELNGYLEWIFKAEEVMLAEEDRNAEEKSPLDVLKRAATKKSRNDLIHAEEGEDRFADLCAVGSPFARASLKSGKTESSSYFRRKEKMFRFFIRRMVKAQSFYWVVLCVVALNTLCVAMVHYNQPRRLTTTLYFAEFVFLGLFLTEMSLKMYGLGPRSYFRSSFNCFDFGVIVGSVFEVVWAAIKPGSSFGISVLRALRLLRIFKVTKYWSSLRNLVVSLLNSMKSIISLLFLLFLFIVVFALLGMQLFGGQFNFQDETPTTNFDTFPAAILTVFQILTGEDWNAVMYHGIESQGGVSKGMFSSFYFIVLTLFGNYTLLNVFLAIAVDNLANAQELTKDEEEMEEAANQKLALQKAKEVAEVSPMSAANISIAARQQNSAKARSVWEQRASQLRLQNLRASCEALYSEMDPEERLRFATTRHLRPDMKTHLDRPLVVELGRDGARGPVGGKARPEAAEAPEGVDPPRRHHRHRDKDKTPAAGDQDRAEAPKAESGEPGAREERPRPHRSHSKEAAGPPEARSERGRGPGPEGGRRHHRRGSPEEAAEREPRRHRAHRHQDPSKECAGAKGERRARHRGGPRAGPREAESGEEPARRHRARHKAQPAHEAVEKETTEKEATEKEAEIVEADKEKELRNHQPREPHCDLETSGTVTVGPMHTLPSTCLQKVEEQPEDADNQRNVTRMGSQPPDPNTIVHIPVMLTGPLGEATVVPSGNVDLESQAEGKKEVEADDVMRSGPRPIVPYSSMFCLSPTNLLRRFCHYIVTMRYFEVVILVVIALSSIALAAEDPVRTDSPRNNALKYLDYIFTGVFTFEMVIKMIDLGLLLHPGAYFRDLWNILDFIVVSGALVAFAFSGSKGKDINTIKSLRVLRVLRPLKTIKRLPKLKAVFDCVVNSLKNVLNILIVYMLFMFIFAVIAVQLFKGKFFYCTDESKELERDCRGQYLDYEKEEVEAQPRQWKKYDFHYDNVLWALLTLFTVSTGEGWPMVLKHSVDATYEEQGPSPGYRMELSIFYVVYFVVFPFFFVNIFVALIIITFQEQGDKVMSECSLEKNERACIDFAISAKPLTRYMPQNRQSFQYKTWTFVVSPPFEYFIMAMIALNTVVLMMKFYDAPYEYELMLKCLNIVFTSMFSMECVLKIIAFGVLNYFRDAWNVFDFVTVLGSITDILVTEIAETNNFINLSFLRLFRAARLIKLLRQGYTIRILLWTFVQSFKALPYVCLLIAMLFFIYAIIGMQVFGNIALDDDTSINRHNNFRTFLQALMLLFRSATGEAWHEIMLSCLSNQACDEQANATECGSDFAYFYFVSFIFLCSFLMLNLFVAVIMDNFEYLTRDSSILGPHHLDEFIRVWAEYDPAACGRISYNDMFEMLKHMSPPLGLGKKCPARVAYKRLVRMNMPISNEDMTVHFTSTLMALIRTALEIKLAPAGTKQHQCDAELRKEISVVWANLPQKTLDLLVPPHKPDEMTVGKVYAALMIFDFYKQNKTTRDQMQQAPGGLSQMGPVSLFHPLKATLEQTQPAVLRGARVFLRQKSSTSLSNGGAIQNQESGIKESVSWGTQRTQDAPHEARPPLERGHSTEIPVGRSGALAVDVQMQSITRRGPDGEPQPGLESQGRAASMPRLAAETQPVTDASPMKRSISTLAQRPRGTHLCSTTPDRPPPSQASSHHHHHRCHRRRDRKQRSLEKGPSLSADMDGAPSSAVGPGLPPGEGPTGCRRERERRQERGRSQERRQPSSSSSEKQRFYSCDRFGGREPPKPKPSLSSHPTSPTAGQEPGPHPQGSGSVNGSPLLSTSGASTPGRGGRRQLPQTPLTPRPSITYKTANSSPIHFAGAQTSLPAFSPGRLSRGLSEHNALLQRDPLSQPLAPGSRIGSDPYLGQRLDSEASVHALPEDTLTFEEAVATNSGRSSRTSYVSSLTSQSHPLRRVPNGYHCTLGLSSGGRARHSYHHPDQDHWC

Structure (SMILES) | Activity Category: %-Inhib (CaV2.2) @3 μM @30 mM KCl (3 μM test compound) | inhibition at 3 µM
CC(C)(C(N)=O)n1nc(C(F)(F)F)cc1C1CC(C)(S(=O)(=O)c2cccc(C(F)(F)F)c2)CCO1 (stereo not drawn) [Example 26 cis-EN2, 2-Methyl-2-[5-[4-methyl-4-[[3-(trifluoromethyl)phenyl]sulfonyl]-tetrahydro-pyran-2-yl]-3-(trifluoromethyl)-1H-pyrazol-1-yl]-propionamide] | B (“B”: %-Inhibition >75% up to ≤95%) | –
COCn1nc(C(F)(F)F)cc1C1CC(C)(S(=O)(=O)c2cccc(C(F)(F)F)c2)CCO1 (stereo not drawn) [Example 21 cis-EN1, 1-(Methoxymethyl)-5-[4-methyl-4-[[3-(trifluoromethyl)phenyl]sulfonyl]-tetrahydro-pyran-2-yl]-3-(trifluoromethyl)-1H-pyrazole] | – | > 95%
CC1(S(=O)(=O)c2cccc(C(F)(F)F)c2)CCOC(c2cc(C(F)(F)F)nn2CCS(C)(=O)=O)C1 (stereo not drawn) [Example 19 cis-EN2, 1-(2-Methylsulfonyl-ethyl)-5-[4-methyl-4-[[3-(trifluoromethyl)phenyl]sulfonyl]-tetrahydro-pyran-2-yl]-3-(trifluoromethyl)-1H-pyrazole] | – | > 95%
CC(C)(C(N)=O)n1nc(C(F)(F)F)cc1C1CC(C)(S(=O)(=O)c2cccc(C(F)(F)F)c2)CCO1 (stereo not drawn) [Example 26 cis-EN1, 2-Methyl-2-[5-[4-methyl-4-[[3-(trifluoromethyl)phenyl]sulfonyl]-tetrahydro-pyran-2-yl]-3-(trifluoromethyl)-1H-pyrazol-1-yl]-propionamide] | – | > 95%
CC1(S(=O)(=O)c2cccc(C(F)(F)F)c2)CCOC(c2cc(C(F)(F)F)nn2CC2(N)CC2)C1 (racemic) [Example 15 cis-rac, [1-[[5-[4-Methyl-4-[[3-(trifluoromethyl)phenyl]sulfonyl]-tetrahydro-pyran-2-yl]-3-(trifluoromethyl)-1H-pyrazol-1-yl]-methyl]-cyclopropyl]-amine] | – | > 95%
